Tests used:
[1] = tested on: Sagittaria trifolia; assay: Transplanted rice safety evaluation and weed control effect evaluation in rice field; assay type: in vivo; details: Table 8, dose 60 g a.i./ha
In short: (§1)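 Paddy-soil pots, seeds sown and flooded (0.5-1 cm, then 3-4 cm water); Sagittaria grown from tubers. WP or SC dilutions dripped on at 0.5-leaf stage (Sagittaria at primary leaf). Visual 0-5 scoring of weeds at 14 days, rice at 21 days.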

[2] = tested on: Monochoria vaginalis; assay: as above; assay type: in vivo; details: Table 8, dose 60 g a.i./ha
In short: as §1

[3] = tested on: Echinochloa crusgali; assay: as above; assay type: in vivo; details: Table 8, dose 60 g a.i./ha
In short: as §1

[4] = tested on: Leptochloa chinensis; assay: as above; assay type: in vivo; details: Table 8, dose 60 g a.i./ha
In short: as §1

[5] = tested on: Rice (Longyang 16); assay: Post-emergence control experiment of R configuration compound activity (directly sowed rice 1.5-2 leaf stage, 25 days); assay type: in vivo
Experimental: (§2) Experiment on weeding effect in post-emergence stage: after 3-4 weeks of sowing, the test plants were treated in the 1.5-2 leaf stage of the directly sowed rice Longyang 16, and the 4-5 leaf stage of weeds. After the application of the compounds of the present invention, the plants were cultured for 25 days in the greenhouse, and then the experimental results of the weeding were counted.
Longyang 16 is a representative and important long-grain fragrant rice in Northeast China. Long-grain fragrant rice is more sensitive to herbicides, especially to HPPD herbicides such as Mesotrione, Benzobicylon and the like, which are prone to causing phytotoxicity.

[6] = tested on: Rice; assay: Transplanted rice safety evaluation and weed control effect evaluation in rice field; assay type: in vivo, rice (japonica rice/Indica rice); details: Table 8, dose 60 g a.i./ha
In short: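 Japonica and Indica rice at 3-leaf stage transplanted into flooded paddy soil (3-4 cm water). Compound applied 5 days after transplanting. Weeds scored visually on 0-5 scale at 14 days; rice injury at 21 days.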

[7] = tested on: Abutilon theophrasti; assay: Post-emergence control experiment of R configuration compound activity (weeds 4-5 leaf stage, 25 days); assay type: in vivo; details: Abutilon theophrasti, post-emergence; read-out: Ablation theophrasti (30 g a.i./ha) inhibition rate
Experimental: as §2

[8] = tested on: Leptochloa chinensis; assay: as above; assay type: in vivo
Experimental: as §2

[9] = tested on: Green Setaria viridis; assay: as above; assay type: in vivo; details: Setaria viridis, post-emergence
Experimental: as §2

[10] = tested on: Digitaria sanguinalis; assay: as above; assay type: in vivo; details: Digitaria sanguinalis, post-emergence; read-out: Digitaria sanguinalis (30 g a.i./ha) inhibition rate
Experimental: as §2

[11] = tested on: Setaria viridis; assay: Weeding effect in post-emergence stage (greenhouse pot spray); assay type: in vivo
In short: (§3)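 Read-out: fresh-weight growth control rate scored 3 weeks after spraying, mean of three replicates. Plants treated at 2-3 leaf stage by spray tower, doses 500-15 g a.i./ha (500, 250, 125, 60, 15).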

[12] = tested on: Digitaria sanguinalis; assay: as above; assay type: in vivo
In short: as §3

[13] = tested on: Echinochloa crusgalli; assay: as above; assay type: in vivo
In short: as §3

## CCC[S@@+]([O-])c1c(C(F)(F)F)ccc(C(=O)Nc2nnc(C)o2)c1F [1-8 (R-configuration)]
[1]
  Sagittaria trifolia (activity level): 5 (Level 5: growth control rate is above 85%)
[2]
  Monochoria vaginalis (activity level): 5 (Level 5: growth control rate is above 85%)
[3]
  Echinochloa crusgali (activity level): 5 (Level 5: growth control rate is above 85%)
[4]
  Leptochloa chinensis (activity level): 5 (Level 5: growth control rate is above 85%)
[5]; 250 g a.i./ha
  Rice (Longyang 16) (250 g a.i./ha) inhibition rate: 0%
[5]; 500 g a.i./ha
  Rice (Longyang 16) (500 g a.i./ha) inhibition rate: 0%
[5]; in vivo
  safety on rice (Longyang 16), in words: high safety
[6]
  Rice (safety level): 0 (Level 0: growth control rate is less than 5%)
[7]
  inhibition at 30 g/ha: 100%
[8]; Dinebra chinensis, post-emergence, read-out: Leptochloa chinensis (60 g a.i./ha) inhibition rate
  inhibition at 60 g/ha: 85%
[8]; Dinebra chinensis, post-emergence, read-out: Leptochloa chinensis (125 g a.i./ha) inhibition rate
  inhibition at 125 g/ha: 100%
[8]; in vivo
  activity against key weed Leptochloa chinensis / key weeds, in words: better activity
[9]; read-out: Green Setaria viridis (30 g a.i./ha) inhibition rate
  inhibition at 30 g/ha: 75%
[9]; read-out: Green Setaria viridis (60 g a.i./ha) inhibition rate
  inhibition at 60 g/ha: 100%
[10]
  inhibition at 30 g/ha: 100%
[11]; Table 3, dose 3.75 g a.i./ha
  Setaria viridis (activity level): 2 (Level 2: growth control rate is greater than or equal to 20% and less than 40%)
[11]; Table 3, dose 7.5 g a.i./ha
  Setaria viridis (activity level): 4 (Level 4: growth control rate is greater than or equal to 60% and less than 85%)
[11]; Table 3, dose 15 g a.i./ha
  Setaria viridis (activity level): 5 (Level 5: growth control rate is above 85%)
[11]; Table 3, dose 30 g a.i./ha
  Setaria viridis (activity level): 5 (Level 5: growth control rate is above 85%)
[11]; Table 3, dose 60 g a.i./ha
  Setaria viridis (activity level): 5 (Level 5: growth control rate is above 85%)
[12]; Table 3, dose 3.75 g a.i./ha
  Digitaria sanguinahs (activity level): 4 (Level 4: growth control rate is greater than or equal to 60% and less than 85%)
[12]; Table 3, dose 7.5 g a.i./ha
  Digitaria sanguinahs (activity level): 5 (Level 5: growth control rate is above 85%)
[12]; Table 3, dose 15 g a.i./ha
  Digitaria sanguinahs (activity level): 5 (Level 5: growth control rate is above 85%)
[12]; Table 3, dose 30 g a.i./ha
  Digitaria sanguinahs (activity level): 5 (Level 5: growth control rate is above 85%)
[12]; Table 3, dose 60 g a.i./ha
  Digitaria sanguinahs (activity level): 5 (Level 5: growth control rate is above 85%)
[13]; Table 3, dose 3.75 g a.i./ha
  Echinochloa crusgali (activity level): 5 (Level 5: growth control rate is above 85%)
[13]; Table 3, dose 7.5 g a.i./ha
  Echinochloa crusgali (activity level): 5 (Level 5: growth control rate is above 85%)
[13]; Table 3, dose 15 g a.i./ha
  Echinochloa crusgali (activity level): 5 (Level 5: growth control rate is above 85%)
[13]; Table 3, dose 30 g a.i./ha
  Echinochloa crusgali (activity level): 5 (Level 5: growth control rate is above 85%)
[13]; Table 3, dose 60 g a.i./ha
  Echinochloa crusgali (activity level): 5 (Level 5: growth control rate is above 85%)

— patent publication US20230041563A1, “N-(1,3,4-OXADIAZOL-2-YL)ARYLCARBOXAMIDES OR SALTS THEREOF, PREPARATION METHODS, HERBICIDAL COMPOSITIONS AND USES THEREOF” (priority 2018, published 2023)
